Counter-ions that a name gives are not always drawn.
Columns and labels:
[1] = target: T1, Broad substrate specificity ATP-binding cassette transporter ABCG2 (Homo sapiens, UniProt Q9UNQ0); assay: (§1) TP_TRANSPORTER: uptake (vesicle) in membrane vesicles from ABCG2-expressing P388 cells; assay type: functional, cell membranes; settings: mouse
T1 sequence (Q9UNQ0 whole entry): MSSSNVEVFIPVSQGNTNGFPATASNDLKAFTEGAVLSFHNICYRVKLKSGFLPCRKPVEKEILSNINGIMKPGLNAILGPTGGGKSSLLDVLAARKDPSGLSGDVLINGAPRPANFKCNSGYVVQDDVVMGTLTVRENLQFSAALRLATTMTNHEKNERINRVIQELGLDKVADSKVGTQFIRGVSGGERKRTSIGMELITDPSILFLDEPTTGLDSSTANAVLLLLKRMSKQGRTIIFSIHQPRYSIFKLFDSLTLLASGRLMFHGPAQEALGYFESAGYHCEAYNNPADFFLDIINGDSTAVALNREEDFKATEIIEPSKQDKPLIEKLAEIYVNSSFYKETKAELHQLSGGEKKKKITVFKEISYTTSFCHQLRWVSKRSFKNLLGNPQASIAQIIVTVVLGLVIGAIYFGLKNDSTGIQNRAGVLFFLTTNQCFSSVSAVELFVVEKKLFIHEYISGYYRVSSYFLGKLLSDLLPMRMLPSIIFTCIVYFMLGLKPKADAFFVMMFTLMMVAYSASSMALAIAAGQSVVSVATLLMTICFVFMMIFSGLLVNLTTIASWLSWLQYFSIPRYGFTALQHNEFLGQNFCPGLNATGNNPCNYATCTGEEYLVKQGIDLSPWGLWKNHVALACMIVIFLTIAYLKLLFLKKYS

[2] = target: T2, ABCG2 (Homo sapiens, UniProt Q9UNQ0); assay: TP_TRANSPORTER: inhibition of E1S uptake by 4-Methylumbelliferone glucuronide at a concentration of 500uM in membrane vesicles from ABCG2-expressing P388 cells; assay type: functional, cell membranes, Membrane vesicle; set-up: scale not given: the % may be the effect or the level left; settings: mouse, probe E1S, read-out: Activity
T2 sequence (Q9UNQ0 whole entry): T1 sequence (Q9UNQ0 whole entry)

[3] = target: T2, ABCG2; assay: TP_TRANSPORTER: inhibition of E1S uptake by Doxorubicin at a concentration of 1000uM in membrane vesicles from ABCG2-expressing P388 cells; assay type: functional, cell membranes, Membrane vesicle; set-up: scale not given: the % may be the effect or the level left; settings: mouse, probe E1S, read-out: Activity
[4] = target: T2, ABCG2; assay: TP_TRANSPORTER: inhibition of E1S uptake by Estrone at a concentration of 200uM in membrane vesicles from ABCG2-expressing P388 cells; assay type: functional, cell membranes, Membrane vesicle; set-up: scale not given: the % may be the effect or the level left; settings: mouse, probe E1S, read-out: Activity
[5] = target: T2, ABCG2; assay: TP_TRANSPORTER: inhibition of E1S uptake by Pravastatin at a concentration of 200uM in membrane vesicles from ABCG2-expressing P388 cells; assay type: functional, cell membranes, Membrane vesicle; set-up: scale not given: the % may be the effect or the level left; settings: mouse, probe E1S, read-out: Activity
[6] = target: T1, Broad substrate specificity ATP-binding cassette transporter ABCG2; assay: TP_TRANSPORTER: inhibition of E1S uptake by 6-hydroxy-5,7-dimetyl-2-metylamino-4-(3-pyridylmethyl) benzothiazole glucronid at a concentration of 250uM in membrane vesicles from ABCG2-expressing P388 cells; assay type: functional, cell membranes, Membrane vesicle; set-up: scale not given: the % may be the effect or the level left; settings: mouse, p388, 250 µM
[7] = target: T2, ABCG2; assay: TP_TRANSPORTER: inhibition of E1S uptake by 2.4-dinitrophenyl-S-glutathione at a concentration of 80uM in membrane vesicles from ABCG2-expressing P388 cells; assay type: functional, cell membranes, Membrane vesicle; set-up: scale not given: the % may be the effect or the level left; settings: mouse, probe E1S, read-out: Activity
[8] = substrate: Cc1cc(=O)oc2cc(OS(=O)(=O)O)ccc12; assay: TP_TRANSPORTER: uptake (vesicle) in membrane vesicle from ABCG2-expressing mouse lymphoma(P388)cells; assay type: functional, cell membranes
[9] = substrate: CNc1nc2c(Cc3cccnc3)c(C)c(OS(=O)(=O)O)c(C)c2s1; assay: as §1; assay type: functional, cell membranes
[10] = substrate: C[C@]12CC[C@@H]3c4ccc(OS(=O)(=O)O)cc4CC[C@H]3[C@@H]1CCC2=O; assay: as §1; assay type: functional, cell membranes

O=C(O)[C@H]1O[C@@H](OCc2cc(=O)oc3cc(O)ccc23)[C@H](O)[C@@H](O)[C@@H]1O
Activity [1]: substrate []
activity at 500 µM [2]: 84%

C[C@]12CC[C@H](OS(=O)(=O)O)CC1=CC[C@@H]1[C@@H]2CC[C@]2(C)C(=O)CC[C@@H]12 [PRASTERONE SULFURIC ACID]
Activity [1]: substrate []

C[C@]12CC[C@@H]3c4ccc(O)cc4CC[C@H]3[C@@H]1CC[C@@H]2O[C@@H]1O[C@H](C(=O)O)[C@@H](O)[C@H](O)[C@H]1O [ESTRADIOL 17B GLUCURONIDE]
Activity [1]: substrate []

COc1cccc2c1C(=O)c1c(O)c3c(c(O)c1C2=O)C[C@@](O)(C(=O)CO)C[C@@H]3O[C@H]1C[C@H](N)[C@H](O)[C@H](C)O1 [DOXORUBICIN]
activity at 1000 µM [3]: 72%

C[C@]12CC[C@@H]3c4ccc(O)cc4CC[C@H]3[C@@H]1CCC2=O [ESTRONE]
activity at 200 µM [4]: 56%

Cc1cc(=O)oc2cc(OS(=O)(=O)O)ccc12
Activity [1]: substrate []

CN(Cc1cnc2nc(N)nc(N)c2n1)c1ccc(C(=O)N[C@@H](CCC(=O)O)C(=O)O)cc1 [METHOTREXATE]
Activity [1]: substrate []

CC[C@H](C)C(=O)O[C@H]1C[C@H](O)C=C2C=C[C@H](C)[C@H](CC[C@@H](O)C[C@@H](O)CC(=O)O)[C@H]21 [PRAVASTATIN]
activity at 200 µM [5]: 76%

CNc1nc2c(Cc3cccnc3)c(C)c(OS(=O)(=O)O)c(C)c2s1 [E3040 SULFATE]
Activity [1]: substrate []

CNc1nc2c(Cc3cccnc3)c(C)c(O[C@@H]3O[C@H](C(=O)O)[C@@H](O)[C@H](O)[C@H]3O)c(C)c2s1 [E3040 GLUCURONIDE]
Activity [6]: 76%
Activity [1]: substrate []

N[C@@H](CCC(=O)N[C@H](CSc1ccc([N+](=O)[O-])cc1[N+](=O)[O-])C(=O)NCC(=O)O)C(=O)O
activity at 80 µM [7]: 78%
Activity [1]: substrate []

B1: Broad substrate specificity ATP-binding cassette transporter ABCG2 (Homo sapiens) (protein)
chain: T1 sequence (Q9UNQ0 whole entry)
Km [8]: 13 µM
Km [9]: 27 µM
Km [10]: 17 µM

From ChEMBL document CHEMBL2073927, “ABCG2 transports sulfated conjugates of steroids and xenobiotics” (J Biol Chem, 2003)
